According to patent publication US8143228B2, “Agents capable of downregulating an MSF-A dependent HIF-1α and use thereof in cancer treatment” (Medical Research Fund of Tel Aviv Sourasky Medical Center, priority 2004, dated 2012):
Where a SMILES comes first, the peptide text is derived from it. The star is where a group is joined. Cbz = O=C(OCc1ccccc1)*

Test system: HIF-1α and Ub-HIF-1α
Assay: Proteasome inhibition and HIF-1α ubiquitination, Western blot
Assay type: cell-based
Settings: PC-3-Neo cells, 4 hours, 5 and 20 μM
Method: FIGS. 19a-b are Western blot analyses depicting the effect of proteasome inhibition on HIF-1α (FIG. 19a) or actin (FIG. 19b) expression levels in PC-3-MSF-A or PC-3-Neo cells. PC-3-Neo (lanes 1-3) and PC-3-MSF-A (lanes 4-6) cells were treated for 4 hours with either 0.1 DMSO (lanes 1 and 4) or with 5 (lanes 2 and 5) and 20 (lanes 3 and 6) μM MG-132. Whole cell lysates were prepared and equal amounts of protein from each cell lysate were resolved by SDS-PAGE, transferred and immunoblotted with antibodies against HIF-1α (FIG. 19a) and actin (FIG. 19b). Ub-HIF-1α points to ubiquitinated HIF-1α protein species.
FIGS. 20a-b are Western blot analyses of HIF-1α immunoprecipitates depicting the expression level of HIF-1α (FIG. 20a) and ubiquitin (FIG. 20b) in PC-3-Neo and PC-3-MSF-A cells. PC-3-Neo (lanes 1-2) and PC-3-MSF-A (lanes 3-4) cells were treated for 4 hours with either 0.1 DMSO (lanes 1 and 3) or with 10 μM MG-132 (lanes 2 and 4). Whole cell lysates were prepared and subjected to immunoprecipitation (IP) with HIF-1α antibody. Immunoprecipitates were resolved on SDS-PAGE and immunoblotted (IB) with HIF-1α (FIG. 20a) and ubiquitin (FIG. 20b) antibodies. Ub-HIF-1α points to ubiquitinated HIF-1α protein species.
To study the ubiquitination of the endogenous HIF-1α in cells over-expressing MSF-A protein, the proteasome inhibitor MG-132 was used. […]

CC(C)C[C@@H](C=O)NC(=O)[C@H](CC(C)C)NC(=O)[C@H](CC(C)C)NC(=O)OCc1ccccc1 [MG-132] (Cbz-Leu-Leu-Leu-aldehyde)
expression of HIF-1α and Ub-HIF-1α: induced the expression of HIF-1α and Ub-HIF-1α
